Target: T1, OCTN2 (hOCTN2) (Homo sapiens, UniProt O76082, Y211A)
T1 construct: gene SLC22A5; hOCTN2 mutant expressed in Xenopus laevis oocytes
T1 sequence (O76082 1-557 Y211A): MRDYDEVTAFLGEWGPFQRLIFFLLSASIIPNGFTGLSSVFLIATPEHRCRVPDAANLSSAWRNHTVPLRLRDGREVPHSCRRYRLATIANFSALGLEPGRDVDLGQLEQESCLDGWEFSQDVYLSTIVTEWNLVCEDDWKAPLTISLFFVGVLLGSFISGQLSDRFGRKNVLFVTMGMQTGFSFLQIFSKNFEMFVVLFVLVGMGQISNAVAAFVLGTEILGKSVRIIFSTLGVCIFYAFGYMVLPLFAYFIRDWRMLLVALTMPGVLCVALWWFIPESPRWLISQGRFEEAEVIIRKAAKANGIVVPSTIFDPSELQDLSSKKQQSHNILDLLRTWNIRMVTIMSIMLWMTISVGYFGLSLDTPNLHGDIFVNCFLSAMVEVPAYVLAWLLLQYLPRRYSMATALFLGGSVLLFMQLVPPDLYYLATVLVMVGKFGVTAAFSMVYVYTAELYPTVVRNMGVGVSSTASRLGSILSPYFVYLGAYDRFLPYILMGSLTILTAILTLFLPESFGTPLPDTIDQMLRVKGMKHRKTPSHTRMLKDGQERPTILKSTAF
Test: two-electrode voltage clamp in oocytes, apparent KM (increased versus wildtype)
Format: cell-based

## C[N+](C)(C)C[C@H](O)CC(=O)[O-] [L-carnitine]
  two-electrode voltage clamp in oocytes, apparent KM (increased versus wildtype): Mutating this residue to an alanine shows a similar increase in carnitine KM as the mutants above (Fig. 2f).

— paper PMC12780140, “Structural basis of sodium ion-dependent carnitine transport by OCTN2” (Nature Communications, 2025)
